Source: US4581359A, “Pharmacological treatments with N-7-substituted derivatives of theophylline” (priority 1984, dated 1986)
Several values for one entry are separate records, joined by “and”; a condition that tells them apart may be missing. Identical values can stand only once. Like-named read-outs stand apart in the source and are kept apart here.

Key:
[1] = Literature: pharmacokinetics of dyphylline and related derivatives in humans; details: human, in vivo, from Simons et al., read-out: Total Vd
Excerpt: Simons, et al., Allergy and Clin. Immunol. (1975) report the pharmacokinetics of dyphylline from seven different doses in seven patients and treat dyphylline as a one-compartment drug which means that Vc would be equal to Vd total since only one compartment is involved. This is, however, inconsistent with the data reported in the above-mentioned articles by Lawyer et al. Also, the data of Simons et al. (1975) can be used to generate the following lists wherein the estimated total volume of distribution of dyphylline (total Vd) is calculated from data presented by using the equation Vd=Dose/(Kel)(AUC): […]

[2] = Dyphylline 20 min intravenous infusion in two healthy male subjects: pharmacokinetics, blood pressure, pulse (Example 2); type: in vivo, human; details: bolus injection
[3] = in vivo
Protocol: One horse was administered acetyl promazine thiamyol sodium, quaifensin, and halothane to produce general anesthesia. Dyphylline (20 mg/kg) was given as an intravenous bolus injection in less than 15 seconds and aminophylline (10 mg/kg) was given as an infusion over about 20 minutes. Plasma and cerebral spinal fluid were collected and assayed by high pressure liquid chromatography for both dyphylline and theophylline.

[4] = cited from earlier work
[5] = clinical; type: in vivo; details: for Cmax: iv, 1000 mg, after 20-minute intravenous infusion of 1000 mg
Protocol: To confirm the data shown in Table XI, dyphylline, 1000 mg, was administered to twelve healthy male volunteers as a zero-order infusion (50 mg/min) or as three conventional tablets (2×400 mg, 1×200 mg).

[6] = Dyphylline intravenous infusion in rabbits: blood concentration, pharmacokinetics, toxicity (Example 1); type: in vivo, female New Zealand White rabbits
Excerpt: A high-pressure liquid chromatographic (HPLC) system consisted of a delivery pump (M-6000A, Waters Associates, Milford, Mass.), sample injection apparatus (Model U6K, Waters Associates, Milford, Mass.), 30-cm reverse phase column (μBondapak C18, Waters Associates, Milford, Mass.), UV detector (Model 440, Waters Associates, Milford, Mass.) with wavelength of 280 nm and a dual pen recorder (Soltec Co., Encino, Calif.) which were used at ambient temperature.
Both dyphylline and theophylline stock standard solutions were prepared to contain 10, 40, 80, 120, 150, 320 or 640 mg of each in 50 ml of distilled water. 20 μl of each was then added into 0.38 ml of rabbit blood to prepare working blood standard solutions.
The internal standard used was β-hydroxypropyl theophylline (Aldrich Chemical Co., Inc., Milwaukee, Wis.) in acetonitrile which was prepared in a 500 ml volumetric flask as a stock solution, and kept tightly sealed except during use throughout the experiment. Internal standard solution (0.4 ml) was added to an equal volume (0.4 ml) of sample to precipitate protein. After centrifuging for 10 minutes, the supernatant was injected into the HPLC. The HPLC operating conditions included a mobile phase composed of acetonitrile (6 percent V/V) in distilled water and a flow rate of 2.0 ml/min.
Typical log blood dyphylline concentration versus time plots, for each of the three rabbits following zero-order infusion of 250 mg over fifteen minutes are presented in FIG. 1. […] (1975). Parameters obtained from linear least square fitting of the terminal data to a one-compartment model appear in Table I. The fitted line of the data can be seen in FIG. 1.

[7] = Single and combined intravenous methyl xanthines in rabbits: heart rate, deaths, plasma concentrations (Example 6); type: in vivo, female rabbits; details: one rabbit each; normal about 220 bpm
Protocol: T 40 mg/kg of aminophylline infused at the rate of 0.21 ml/min over 30
T/D 40 mg/kg of aminophylline infused at the rate of 0.21 ml/min over 30
T/E 40 mg/kg of aminophylline infused at the rate of 0.21 ml/min over 30
T/P 40 mg/kg of aminophylline infused at the rate of 0.21 ml/min over 30

[8] = cited from earlier work; remark: listed apart in the source
[9] = rabbit, blood, iv, 250 mg, 250.0 mg/rabbit over 15 minutes, alone, rabbits 1-3, mean

Cn1c(=O)c2c(ncn2CC(O)CO)n(C)c1=O (stereo not drawn) [dyphylline, dihydroxypropyl theophylline]
Vd ([1]; 10 mg/kg, 10 mg/kg alcoholic solution with glycerol-guaiacolate solution): 0.77 L/kg | Vd ([1]; 10 mg/kg, 10 mg/kg alcoholic solution): 0.98 L/kg | Vd ([1]; 10 mg/kg, 10 mg/kg aqueous): 0.93 L/kg | Vd/F ([1]; im, 5 mg/kg, 5 mg/kg intramuscular): 0.58 L/kg | Vd/F ([1]; im, 10 mg/kg, 10 mg/kg intramuscular): 0.8 L/kg | Vd/F ([1]; po, 5 mg/kg, 5 mg/kg tablet): 0.58 L/kg | Vd/F ([1]; po, 10 mg/kg, 10 mg/kg tablet): 0.72 L/kg | half-time of clearance from the central compartment [2]: four to nine | penetration into cerebral spinal fluid [3]: penetrate into cerebral spinal fluid | time post dosing to achieve plasma concentrations ([4]; Joos et al.): 90 min | plasma concentration of dyphylline ([4]; combined with theophylline and proxyphylline (Bracher; Werdermann)): less than 3.0 mcg/ml | plasma concentration, each drug ([4]; dyphylline and proxyphylline (Joos et al.), 90 min): about 13 mcg/ml | drug related toxicities ([5]; human, in vivo): No subjects reported any drug related toxicities | Cmax ([5]; human, plasma, read-out: Maximum plasma concentration, average): 30.1 µg/mL | Cmax ([5]; human, plasma, read-out: Maximum plasma concentration, range): 18.4 to 46.8 µg/mL | Vd ([5]; human, plasma, 1000 mg IV, twelve volunteers, standard deviation 0.08, read-out: average total volume of distribution, IV): 0.78 L/kg | difference between predose and peak drug effects on blood pressure and heart rate ([5]; α=0.05 level): not statistically significant | Ccut, blood concentration at the time the infusion was stopped ([6]; 250.0 mg/rabbit zero-order infusion over 15 minutes, alone, rabbits 1-3, mean, 15 min): 81.82 µg/mL and 112.5 µg/mL and 91.70 µg/mL | signs of toxicity ([6]; blood concentrations about 80 to 112 mcg/ml): did not exhibit any signs of toxicity | half-life [6, 9]: 35.6 min | k el [6, 9]: 0.000325 s⁻¹ | Vd ([6]; rabbit, blood, iv, 250 mg, 250.0 mg/rabbit over 15 minutes, alone, rabbits 1-3, mean, read-out: Vd1): 0.895 L/kg | concentration at 0.25 h ([6]; rabbit, blood, iv, 250 mg, 250.0 mg/rabbit zero-order infusion over 15 minutes, alone, rabbits 1-3, mean, read-out: Ccut, blood concentration at the time the infusion was stopped): 80.8 µg/mL | concentration at 0.25 h ([6]; rabbit, blood, iv, 250 mg, 15 minutes, three rabbits, read-out: blood concentration when the infusion was stopped): 80 to 112 µg/mL | Vd ([6]; rabbit, blood, iv, 250 mg, Table I, read-out: average apparent volume of distribution of dyphylline administered alone): 0.82 L/kg | heart rate, individual drug treatment [7]: 76 bpm | water solubility [8]: high water solubility
